Consider one compound from patent US5695970A, “Glucan lyase producing 1,5-anhydrofructose” (priority 1992, dated 1997).

Experiment [1] has as its system α-1,4-glucan lyase. The experiment is described as follows: Reaction mode: complete degradation of substrates by the lyase and final products. The experiment is classed as biochemical, Gracilariopsis lemaneiformis. To be noted: 2% maltoheptaose; enzyme 6 μg protein per ml; 30° C. The protocol:
In an enzyme concentration of 6 μg protein per ml, at 30° C., the time needed for a complete degradation of 1% maltose solution was 1 h, for 2% maltose solution, 3 h, for 5% maltose solution, 10-24 h, for 2% maltoheptaose, 10-24 h. This is in sharp contrast to many polysaccharides' depolymerization enzymes, whose reaction stops with the accumulation of products or with the decrease in substrate size.
When maltoheptaose was used as a substrate, the final products are 1,5-anhydrofructose and glucose and their ratio is 6:1. The intermediate products are a mixture of maltosaccharides with a DP number between 2-6 during the process of the reaction. With the increase of reaction time, the DP number of the maltosaccharides decreased and finally all the maltosaccharides disappeared. When maltose was used as a substrate, the ratio of 1,5-anhydrofructose to glucose was 1:1. With the increase of DP number, the yield of glucose decreased, while the yield of 1,5-anhydrofructose increased. When a linear chain of a α-1,4-glucan is long enough, the yield of 1,5-anhydrofructose can be nearly 100%.

In experiment [2] the test system is α-1,4-glucan lyase. The experiment is described as follows: Substrate specificity of α-1,4-glucan lyase (release of 1,5-anhydrofructose, DNS method, 15 min). The experiment is classed as biochemical, Gracilariopsis lemaneiformis. The protocol: When amylopectin was used as a substrate, the activity reached maximum 8 mg ml^-1 and then decreased slightly at 20 mg ml^-1. The same results were obtained with soluble starch and maltoheptaose. When maltotriose and maltose were used as substrates, the activity reached maximum at 2 mg ml^-1 and 6 mg ml^-1, respectively. Substrate inhibition became evident at higher concentrations, especially in the case of maltotriose. […] Generally, the inhibition degree decreased with the increase in DP number (Degree of Polymerization). When the activity measured at 10 mg ml^-1 was compared at 2 mg ml^-1 and 4 mg ml^-1, substrate inhibition could be clearly seen among the maltosaccharides of DP 3-5. In maltohexaose, the substrate inhibition was very low and was none in maltoheptaose. Among the maltosaccharides, maltotetraose and maltopentaose were the poorest substrates.
With PNPG1 (p-nitrophenyl-α-D-glucoside), the artificial substrate of α-glucosidase, reaction rate was the lowest.
Substrate Specificity of α-1,4-Glucan lyase.
The concentration of various substrates in the reaction mixture
was 10 mg ml^-1 except PNPG1, PNPG2, PNPG7, which was 2 mM.
The incubation time was 15 min. The degrading rate of maltoheptaose
was 84 μmol min^-1. mg^-1 protein.
The reaction mixture for the assay of α-1,4-glucan lyase was composed of 240 μl 62.5 mM Mops-NaOH containing 6 mg soluble starch (pH 6.2), the enzyme preparation and distilled water to a final volume of 300 μl. The reaction was carried out at 30° C. for 10-30 min. Liberated 1,5-anhydrofructose was determined by monitoring the absorbance at 546 nm after the addition of 3,5-dinitrosalicylic acid reagent. Soluble starch in the reaction mixture may be replaced by other substrates and the final substrate concentration may be varied as indicated in the text. The reaction time and enzyme concentration used in enzyme activity assay have been chosen to ensure the linearity of the reaction rate. One unit of α-1,4-glucan lyase activity is defined as the amount of enzyme which liberates 1μmol of 1,5-anhydrofructose min^-1 under the conditions described above.

Experiment [3] has as its system α-1,4-glucan lyase. The experiment is described as follows: Elution of α-1,4-glucan lyase from the starch column by glucans. The experiment is classed as binding, Gracilariopsis lemaneiformis. Conditions: glucan 8 mg ml^-1; column 1 ml, 5 ml eluate; recovery with amylopectin = 100%. How it is done: In these experiments, as much as 5 times of the column volume was collected. At high pH, for example, 50 mM bicine-NaOH (pH 8.2), the binding of the enzyme onto the starch column was loose and it was eluted by subsequent washing with the same buffer. Neither ConA-Sepharose nor cycloheptaamylose-Sepharose 6B was effective for the purification of the enzyme because of low recovery.
The efficiency of various glucans (8 mg ml^-1) on the elution of
α-1,4-glucan lyase from the starch column. The column volume
was 1 ml and 5 ml eluate was pooled. The recovery of
α-1,4-glucan lyase eluted by amylopectin was used as 100%.
Gracilariopsis lemaneiformis (originally collected from China), 30 g, was sampled directly from the culture cylinder and was rinsed briefly with deionized water and blotted dry with paper tissue. The following operations were carried out at 0°-4° C. The thalli were cut to pieces with scissors and pulverized under liquid nitrogen. To 1 g alga powder was added 3 volumes of buffer A (50 mM citrate-NaOH, pH 6.6), filtered through two-layer cloth and centrifuged at 36,600×g for 10 min. The supernatant (cell-free extract) was loaded onto a starch column (4.1×1.5 cm) pre-equilibrated with buffer A. After loading, the column was extensively washed with 4 volumes of buffer A, volumes of buffer A containing 1M NaCl, 1 volume of buffer A, 1 volume of buffer B (50 mM imidazole-HCl, pH 6.6) in a flow speed of 24 ml h^-1. α-1,4-Glucan lyase was eluted with buffer B containing 10 mg ml^-1 amylopectin in a fraction size of 3.5 ml. To separate α-1,4-glucan lyase from the amylopectin, the active fractions of the eluate were pooled and applied onto a Q-Sepharose column (2.6×5 cm). The column was pre-equilibrated and later washed with buffer B. α-1,4-Glucan lyase was eluted with buffer B containing 0.7M NaCl. Active fractions were pooled and concentrated on a Centriprep CP30 (Amicon, USA) with a molecule weight cutoff of 30,000 and applied to a Sephacryl S-200 column (2.6×80 cm) pre-equilibrated and eluted with buffer A containing 0.2M NaCl. The flow speed was 60 ml h^-1 with a fraction size of 3.5 ml per tube. Active fractions were collected and concentrated again by using centriprep CP30.

[4] abbreviates: substrate 10 mg ml^-1, incubation 15 min.

Regarding `OC[C@H]1O[C@H](O[C@H]2[C@H](O)[C@@H](O)[C@@H](O[C@H]3[C@H](O)[C@@H](O)[C@@H](O[C@H]4[C@H](O)[C@@H](O)[C@@H](O[C@H]5[C@H](O)[C@@H](O)[C@@H](O[C@H]6[C@H](O)[C@@H](O)[C@@H](O[C@H]7[C@H](O)[C@@H](O)C(O)O[C@@H]7CO)O[C@@H]6CO)O[C@@H]5CO)O[C@@H]4CO)O[C@@H]3CO)O[C@@H]2CO)[C@H](O)[C@@H](O)[C@@H]1O` (some centres unmarked) [Maltoheptaose, maltoheptaose], the “time needed for a complete degradation” value in experiment [1] was in the range of 10 to 24 h. Also, the substrate inhibition result in experiment [2] (higher substrate concentrations, 10 mg ml^-1 compared with 2 and 4 mg ml^-1) was “none”. Also, in experiment [2] (setting [4]), the “Activity (% of Maltoheptaose)” value came out at 100.0% and the degrading rate is 84 μmol min^-1. mg^-1 protein. In experiment [3], the “Elution Efficiency” value turned out to be 94.3%.
